Entries after “also recorded” stand apart in the source; their conditions may differ. Like-named read-outs stand apart in the source and are kept apart here.
How the values were obtained:
anesthetized cats = settings: cited from earlier work
anesthetized rats [1] = assay: Heart rate increase reaction induced by frequent electrical stimulation of hindlimb afferent nerves, i.v. administration; assay type: in vivo, rat; settings: for suppressive effect on heart rate increase: anesthetized rats, i.v., electrical stimulation of lower extremity nerves
Description: Among (1) “heart rate increase reaction induced by frequent electrical stimulation of hindlimb afferent nerves” employed herein is not induced by weak stimulation intensity (0.2 V) that excites only thick medullated A-fibers, but induced by stimulation intensity (1 V) that is the same or higher than the excitation threshold of thin medullated A-fibers. When the stimulation intensity is further increased (10 V) so as to cause excitation of nonmedullated C fibers, the amplification of the heart rate increase reaction is increased to reach the maximum level (Sato et al, J Auton Nery Syst 4: 231, 1981; Uchida et al, Neurosci Left 269: 161, 1999). Noxious information is transmitted by A-fibers and C fibers. Therefore, such heart rate increase reaction induced by excitation of somatic afferent A-fibers and C fibers can be an indicator for evaluation of analgesic effects.
Blood pressure waveform was collected using a pulse rate tachometer (AT601-O, Nihon Kohden) and the heart rate was recorded continuously.

[2] = Arterial blood pressure after i.v. cPA administration; assay type: in vivo, rat
Description: The right femoral artery was cannulated. Arterial blood pressure was continuously recorded from the intra-arterial cannula using a pressure transducer (TP-400T, Nihon Kohden, Tokyo).

anesthetized rats [3] = test system: anesthetized rats
[4] = test system: DNA polymerase α of eukaryotic cells; settings: cited from earlier work
[5] = 50 μg/Kg i.v., 10 to 15 minutes after administration
[6] = 100 μg/Kg i.v., 10 to 15 minutes after administration
[7] = 200 μg/Kg i.v., 10 to 15 minutes after administration

Chain of DNA polymerase α of eukaryotic cells (P09884 whole entry): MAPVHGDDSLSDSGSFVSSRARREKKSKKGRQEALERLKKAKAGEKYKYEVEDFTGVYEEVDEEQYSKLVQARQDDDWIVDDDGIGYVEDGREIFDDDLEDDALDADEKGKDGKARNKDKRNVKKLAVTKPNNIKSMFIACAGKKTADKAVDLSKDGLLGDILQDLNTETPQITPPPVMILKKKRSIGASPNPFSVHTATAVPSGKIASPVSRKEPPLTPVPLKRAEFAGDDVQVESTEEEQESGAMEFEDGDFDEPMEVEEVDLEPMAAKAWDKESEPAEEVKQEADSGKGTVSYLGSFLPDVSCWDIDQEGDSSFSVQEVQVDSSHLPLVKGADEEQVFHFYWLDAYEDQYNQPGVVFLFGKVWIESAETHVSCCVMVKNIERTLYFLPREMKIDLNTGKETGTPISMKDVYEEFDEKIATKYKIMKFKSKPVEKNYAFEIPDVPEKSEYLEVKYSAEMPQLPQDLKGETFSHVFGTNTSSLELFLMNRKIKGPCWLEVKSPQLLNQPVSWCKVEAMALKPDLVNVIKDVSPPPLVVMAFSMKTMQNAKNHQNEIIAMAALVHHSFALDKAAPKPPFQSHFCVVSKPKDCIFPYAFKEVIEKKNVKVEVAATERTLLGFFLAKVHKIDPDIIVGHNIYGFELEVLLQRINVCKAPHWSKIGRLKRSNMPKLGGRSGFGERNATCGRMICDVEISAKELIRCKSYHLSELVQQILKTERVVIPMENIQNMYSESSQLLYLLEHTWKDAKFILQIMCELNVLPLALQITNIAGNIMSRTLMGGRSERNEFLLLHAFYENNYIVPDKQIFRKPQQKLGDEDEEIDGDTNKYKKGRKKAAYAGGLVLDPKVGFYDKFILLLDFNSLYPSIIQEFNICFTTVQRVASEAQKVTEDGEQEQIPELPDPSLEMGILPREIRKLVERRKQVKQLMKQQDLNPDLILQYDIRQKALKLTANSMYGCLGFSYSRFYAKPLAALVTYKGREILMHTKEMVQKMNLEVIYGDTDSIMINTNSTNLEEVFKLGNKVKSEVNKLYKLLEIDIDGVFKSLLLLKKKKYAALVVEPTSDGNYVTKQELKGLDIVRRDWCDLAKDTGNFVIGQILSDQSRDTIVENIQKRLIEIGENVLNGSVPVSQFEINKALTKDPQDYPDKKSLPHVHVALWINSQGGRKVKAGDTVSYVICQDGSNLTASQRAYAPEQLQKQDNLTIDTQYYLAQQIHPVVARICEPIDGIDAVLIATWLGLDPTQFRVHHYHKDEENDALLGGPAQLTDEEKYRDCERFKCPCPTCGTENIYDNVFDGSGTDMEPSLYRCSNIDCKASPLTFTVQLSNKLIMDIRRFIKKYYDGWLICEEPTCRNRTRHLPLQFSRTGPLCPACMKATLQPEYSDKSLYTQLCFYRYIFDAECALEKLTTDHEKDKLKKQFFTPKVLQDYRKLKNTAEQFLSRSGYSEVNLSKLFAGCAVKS
Chain of DNA polymerase α of eukaryotic cells (Q14181 whole entry partner): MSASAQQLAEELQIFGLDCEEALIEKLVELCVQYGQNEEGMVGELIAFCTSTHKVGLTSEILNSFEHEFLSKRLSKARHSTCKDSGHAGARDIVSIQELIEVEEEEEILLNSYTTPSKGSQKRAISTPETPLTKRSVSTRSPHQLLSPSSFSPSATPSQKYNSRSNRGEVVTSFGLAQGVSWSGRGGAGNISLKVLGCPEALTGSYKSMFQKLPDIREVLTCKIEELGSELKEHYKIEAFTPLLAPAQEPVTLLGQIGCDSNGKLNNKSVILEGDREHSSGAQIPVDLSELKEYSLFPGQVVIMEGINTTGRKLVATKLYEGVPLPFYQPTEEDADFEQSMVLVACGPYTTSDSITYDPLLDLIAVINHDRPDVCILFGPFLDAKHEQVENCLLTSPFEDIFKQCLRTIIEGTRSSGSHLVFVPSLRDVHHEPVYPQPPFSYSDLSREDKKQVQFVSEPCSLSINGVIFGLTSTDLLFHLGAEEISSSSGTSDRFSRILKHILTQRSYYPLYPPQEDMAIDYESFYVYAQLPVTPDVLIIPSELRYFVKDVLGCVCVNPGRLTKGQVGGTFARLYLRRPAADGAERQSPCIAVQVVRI
Chain of DNA polymerase α of eukaryotic cells (P49642 whole entry partner): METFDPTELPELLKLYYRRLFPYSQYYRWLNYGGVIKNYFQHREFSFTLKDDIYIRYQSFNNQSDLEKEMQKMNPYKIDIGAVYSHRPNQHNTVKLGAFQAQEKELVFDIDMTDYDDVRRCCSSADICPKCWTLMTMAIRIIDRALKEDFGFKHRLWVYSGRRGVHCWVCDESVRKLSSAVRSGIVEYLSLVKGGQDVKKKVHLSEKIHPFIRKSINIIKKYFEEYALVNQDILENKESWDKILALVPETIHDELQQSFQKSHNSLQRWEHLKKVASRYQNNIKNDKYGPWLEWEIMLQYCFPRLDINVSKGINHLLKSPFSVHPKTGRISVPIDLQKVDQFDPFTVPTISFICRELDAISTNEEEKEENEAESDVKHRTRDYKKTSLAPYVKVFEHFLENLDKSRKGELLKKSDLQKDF
Chain of DNA polymerase α of eukaryotic cells (P49643 whole entry partner): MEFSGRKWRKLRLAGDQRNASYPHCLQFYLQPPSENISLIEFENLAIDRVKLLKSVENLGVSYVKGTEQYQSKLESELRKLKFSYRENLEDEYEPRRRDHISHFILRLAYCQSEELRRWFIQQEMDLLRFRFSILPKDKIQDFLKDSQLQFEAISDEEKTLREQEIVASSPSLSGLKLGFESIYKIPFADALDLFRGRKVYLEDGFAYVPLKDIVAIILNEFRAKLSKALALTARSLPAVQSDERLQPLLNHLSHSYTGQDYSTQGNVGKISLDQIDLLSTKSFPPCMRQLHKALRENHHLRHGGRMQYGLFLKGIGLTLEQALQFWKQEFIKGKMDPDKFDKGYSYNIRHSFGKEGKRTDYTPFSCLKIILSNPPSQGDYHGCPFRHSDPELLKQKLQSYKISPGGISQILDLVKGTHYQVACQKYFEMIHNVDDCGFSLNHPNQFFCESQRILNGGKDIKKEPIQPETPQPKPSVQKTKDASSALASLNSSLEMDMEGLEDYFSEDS

CN1CC[C@]23c4c5ccc(O)c4O[C@H]2[C@@H](O)C=C[C@H]3[C@H]1C5 [morphine]
effect on C-reflex potential (anesthetized cats): selectively suppresses C-reflex potential alone

CCCCCCCCCCCCCCCC(=O)OCC1COP(=O)(O)O1 (stereo not shown) [Pal-cPA]
suppressive effect on heart rate increase (anesthetized rats [1]): no consistent tendency could be confirmed; also recorded: not significant
blood pressure ([2]; after dose of 2 mg/Kg body weight i.v.): 130 mmHg
blood pressure ([2]; dose 300 μg/Kg body weight i.v., brief increase): around 100 mmHg
blood pressure ([2]; dose 2 mg/Kg i.v., thereafter up to 30 minutes after administration): around 130 mmHg

CCCCCC/C=C\CCCCCCCC(=O)OCC1CCP(=O)(O)O1 (stereo not shown) [Pal-3 ccPA, palmitoleoyl 3 carba cPA]
decrease in depolarization level of C reflex (anesthetized rats [3]; [5]): approximately 30%
decrease in depolarization level of C reflex (anesthetized rats [3]; [6]): approximately 50%
decrease in depolarization level of C reflex (anesthetized rats [3]; [7]): approximately 60%
change in discharge/depolarization level of cardiac nerves, particularly C reflex (anesthetized rats [3]; anesthetized rats, i.v.): significant decrease
degree of decrease in C reflex depolarization compared with 2 carba derivatives (anesthetized rats [3]; i.v., anesthetized rats): somewhat lower

CCCCCC/C=C\CCCCCCCC(=O)OCC1COP(=O)(O)C1 (stereo not shown) [Pal-2 ccPA, palmitoleoyl 2 carba cPA]
decrease in depolarization level of C reflex (anesthetized rats [3]; [5]): ≥ 30%
decrease in depolarization level of C reflex (anesthetized rats [3]; [6]): approximately 60%
decrease in depolarization level of C reflex (anesthetized rats [3]; [7]): approximately 70%
decrease in depolarization level of C reflex (anesthetized rats [3]; 500 μg/Kg i.v., 10 to 15 minutes after administration): approximately 80%
change in discharge/depolarization level of cardiac nerves, particularly C reflex (anesthetized rats [3]; anesthetized rats, i.v.): significant decrease

CCCCCC[C@@H]1C[C@@H]1CCCCCCCC(=O)OC[C@@H]1COP(=O)(O)O1 [PHYLPA]
effect on activity of DNA polymerase α [4]: suppresses

CCCCCCCC/C=C\CCCCCCCC(=O)OCC1COP(=O)(O)O1 (stereo not shown) [Ole-cPA, 1-oleoyl cyclic phosphatidic acid]
suppressive effect on heart rate increase (anesthetized rats [1]): significantly suppressed; also recorded: significantly observed
heart rate increase compared with control (anesthetized rats [1]; dose 5 mg/Kg body weight i.v.): a half of or lower than that of the control
suppressive effect on heart rate increase after 20 minutes (anesthetized rats [1]; dose 5 mg/Kg i.v., after 20 minutes): significant suppressive effect
duration of the suppressive effect on heart rate increase (anesthetized rats [1]; dose higher than 1 mg/Kg body weight i.v.): ≥ 20 min
effects of administration on blood pressure ([2]; anesthetized rats, i.v.): not observed
blood pressure ([2]; dose 2 mg/Kg body weight or less i.v.): ~90 mmHg
decrease in depolarization level of C reflex (anesthetized rats [3]; 2 mg/Kg i.v.): approximately 50%
changes in discharge level of Aδ reflex (anesthetized rats [3]; after administration, compared with C reflex): inconsistent
change in discharge/depolarization level of cardiac nerves, particularly C reflex (anesthetized rats [3]; anesthetized rats, i.v.): decreased
decrease in discharge level of C reflex (anesthetized rats [3]; any concentration, 10 to 15 minutes after administration): approximately 1 mV
decrease in discharge level of C reflex (anesthetized rats [3]; any concentration, 10 to 15 minutes after administration, relative to before administration): up to 40%
decrease in discharge level of C reflex (anesthetized rats [3]; dose 2 mg/Kg, 30 minutes after administration, compared with before administration): approximately 20%

— patent US8017597B2, “Analgesic agent comprising cyclic phosphatidic acid derivative” (Ochanomizu University, priority 2006, dated 2011)
